Publication PMC10004777 (Molecules, 2023)

What was measured:
HepG2 cells = assay: Cell viability (MTT) assay, HepG2; type: cell-based; conditions: for anti-proliferation activity on HepG2 (in words): HepG2, 48 h
Description: (§1) To investigate the selectivity of these derivatives towards different tumor cell lines, we also selected HepG2 and osteosarcoma cell line SJSA-1 cells to evaluate the anti-proliferation activity of the derivatives. […] Except for compounds A2 and A11, the effects of other compounds on SJSA-1 were not strong.
(§2) The cell lines present in this study were obtained from Procell Life Science & Technology Co. Ltd. MCF-7, HepG2 and SJSA-1 cells were cultured in DMEM medium (DMEM, Gibco) supplemented with 10% fetal bovine serum (FBS, Gibco), 1% penicillin-streptomycin (Hyclone) at 37℃ in a humid environment with 5% CO2. HK-2 cells were cultured in DMEM/F12 (1:1) medium and placed in incubators in the same environment.
(§3) Cell viability was determined by MTT assay. MCF-7, HepG2, SJSA-1 and HK-2 cells (6 × 10^3 cells /well) were seeded in 96-well plates with serum-free medium for 24 h. […] After 48 or 72 h, 10 μL MTT (5 mg/mL, Beyotime) was added and incubated at 37 °C for 4 h. Then 100 μL of lysate was added. After complete dissolution of the crystal, the absorbance was measured at 540 nm and expressed as the average percentage of absorbance between treated and control cells. The value for control cells was set at 100%. Cell survival rate was calculated as the ratio of the absorbance of the cells and negative control after minus the blank absorbance respectively.

[1] = test system: MCF-7 breast cancer cells; assay: Cell viability (MTT) assay, MCF-7; type: cell-based; conditions: for anti-proliferation activity on MCF-7 compared with GAA: MCF-7, 48 h
Description: MCF-7 is a commonly used tumor cell line.
as §2, §3

[2] = test system: osteosarcoma cell line SJSA-1; assay: Cell viability (MTT) assay, SJSA-1; type: cell-based
Description: as §1, §2, §3

HK-2 cells = assay: Cell viability (MTT) assay, HK-2 normal cells (cytotoxicity); type: cell-based
Description: as §2, §3

Compound | melting point [°C] | Viability of Cells (% of Control) (HepG2 cells; 25 µM) | Viability of Cells (% of Control) (HepG2 cells; 50 µM) | Viability of Cells (% of Control) ([1]; 25 µM) | Viability of Cells (% of Control) ([1]; 50 µM) | Viability of Cells (% of Control) ([1]; 100 µM) | Viability of Cells (% of Control) ([2]; 50 µM) | Viability of Cells (% of Control) ([2]; 100 µM) | Viability of Cells (% of Control) (HK-2 cells; 50 µM) | Viability of Cells (% of Control) (HK-2 cells; 100 µM) | toxicity to HK2 cells (in words) (HK-2 cells) | anti-proliferation activity on HepG2 (in words) (HepG2 cells) | inhibition at 50 µM ([1]; Homo sapiens, MCF7, MCF-7, 50 µM, 48 h, read-out: inhibition rate of MCF-7) [%] | anti-proliferation activity on MCF-7 compared with GAA [1]
CCCCNC(=O)[C@H](C)CC(=O)C[C@@H](C)[C@H]1C[C@H](O)[C@@]2(C)C3=C(C(=O)C[C@]12C)[C@@]1(C)CCC(=O)C(C)(C)[C@@H]1C[C@@H]3O [Compound A1, (n-butyl)-(7β,15α,25R)-7,15-Dihydroxy-3,11,23-Trioxolanost-8-en-26-oic Amide] | 120.7 to 121.5 | 90.5 ± 1.1 % of Control | 87.2 ± 3.1 % of Control | 96.6 ± 6.2 % of Control | 114.3 ± 1.2 % of Control | 78.7 ± 3.4 % of Control | 87.9 ± 0.9 % of Control | 74.0 ± 3.8 % of Control | – | – | – | – | – | –
Cc1ccc(NC(=O)[C@H](C)CC(=O)C[C@@H](C)[C@H]2C[C@H](O)[C@@]3(C)C4=C(C(=O)C[C@]23C)[C@@]2(C)CCC(=O)C(C)(C)[C@@H]2C[C@@H]4O)cc1 [Compound A3, (4-Methylphenyl)-(7β,15α,25R)-7,15-Dihydroxy-3,11,23-Trioxolanost-8-en-26-oic Amide] | 174.3 to 175.5 | 90.1 ± 1.1 % of Control | 76.3 ± 1.1 % of Control | 110.9 ± 2.2 % of Control | 114.3 ± 1.2 % of Control | 78.7 ± 3.9 % of Control | 85.3 ± 1.1 % of Control | 83.3 ± 3.0 % of Control | – | – | – | – | – | –
C[C@H](CC(=O)C[C@@H](C)[C@H]1C[C@H](O)[C@@]2(C)C3=C(C(=O)C[C@]12C)[C@@]1(C)CCC(=O)C(C)(C)[C@@H]1C[C@@H]3O)C(=O)Nc1ccc(Cl)cc1 [Compound A4, (4-Chlorophenyl)-(7β,15α,25R)-7,15-Dhydroxy-3,11,23-Trioxolanost-8-en-26-oic Amide] | 184.9 to 185.3 | 87.7 ± 1.9 % of Control | 72.0 ± 1.9 % of Control | 116.4 ± 4.8 % of Control | 120.7 ± 2.0 % of Control | 108.9 ± 1.1 % of Control | 83.9 ± 5.4 % of Control | 57.4 ± 4.2 % of Control | – | – | – | – | – | –
Cc1ccc(CNC(=O)[C@H](C)CC(=O)C[C@@H](C)[C@H]2C[C@H](O)[C@@]3(C)C4=C(C(=O)C[C@]23C)[C@@]2(C)CCC(=O)C(C)(C)[C@@H]2C[C@@H]4O)cc1 [Compound A5, (4-methylbenzyl)-(7β,15α,25R)-7,15-Dihydroxy-3,11,23-Trioxolanost-8-en-26-oic Amide] | 208.7 to 209 | 78.5 ± 3.0 % of Control | 69.1 ± 1.9 % of Control | 115.0 ± 2.9 % of Control | 107.4 ± 6.7 % of Control | 99.5 ± 1.0 % of Control | 75.0 ± 2.6 % of Control | 64.5 ± 1.2 % of Control | 110.4 ± 13.1 % of Control | 97.0 ± 8.8 % of Control | – | – | – | –
C[C@H](CC(=O)C[C@@H](C)[C@H]1C[C@H](O)[C@@]2(C)C3=C(C(=O)C[C@]12C)[C@@]1(C)CCC(=O)C(C)(C)[C@@H]1C[C@@H]3O)C(=O)NCc1ccc(F)cc1 [Compound A6, (4-Fluorobenzyl)-(7β,15α,25R)-7,15-Dihydroxy-3,11,23-Trioxolanost-8-en-26-oic Amide] | 178.4 to 179.3 | 84.0 ± 0.8 % of Control | 76.6 ± 1.6 % of Control | 77.1 ± 4.2 % of Control | – | 26.4 ± 1.5 % of Control | 92.6 ± 3.1 % of Control | 65.8 ± 3.2 % of Control | 89.6 ± 6.9 % of Control | 80.2 ± 9.0 % of Control | some toxicity | weaker anti-proliferation effect | 63.6 | significant anti-proliferation activities
C[C@H](CC(=O)C[C@@H](C)[C@H]1C[C@H](O)[C@@]2(C)C3=C(C(=O)C[C@]12C)[C@@]1(C)CCC(=O)C(C)(C)[C@@H]1C[C@@H]3O)C(=O)NCc1ccc(Cl)cc1 [Compound A7, (4-Chlorobenzyl)-(7β,15α,25R)-7,15-Dihydroxy-3,11,23-Trioxolanost-8-en-26-oic Amide] | 188.6 to 189.4 | 73.8 ± 1.2 % of Control | 53.4 ± 1.0 % of Control | 73.5 ± 4.0 % of Control | – | 75.1 ± 13.2 % of Control | 81.6 ± 2.8 % of Control | 77.1 ± 4.6 % of Control | 86.2 ± 3.7 % of Control | 81.3 ± 3.3 % of Control | some toxicity | potent anti-proliferation activity | – | significant anti-proliferation activities
C[C@H](CC(=O)C[C@@H](C)[C@H]1C[C@H](O)[C@@]2(C)C3=C(C(=O)C[C@]12C)[C@@]1(C)CCC(=O)C(C)(C)[C@@H]1C[C@@H]3O)C(=O)NCc1cc(Cl)cc(Cl)c1 [Compound A8, (3,5-Dichlorobenzyl)-(7β,15α,25R)-7,15-Dihydroxy-3,11,23-Trioxolanost-8-en-26-oic Amide] | 182.6 to 183.8 | 54.2 ± 2.0 % of Control | 48.1 ± 1.5 % of Control | 63.3 ± 8.3 % of Control | – | 39.4 ± 5.8 % of Control | 92.4 ± 1.4 % of Control | 80.4 ± 4.7 % of Control | 107.8 ± 14.3 % of Control | 91.0 ± 2.4 % of Control | – | potent anti-proliferation activity | – | significant anti-proliferation activities
C[C@H](CC(=O)C[C@@H](C)[C@H]1C[C@H](O)[C@@]2(C)C3=C(C(=O)C[C@]12C)[C@@]1(C)CCC(=O)C(C)(C)[C@@H]1C[C@@H]3O)C(=O)NC1Cc2ccccc2C1 [Compound A9, (2,3-Dihydro-1H-inden-2-yl)-(7β,15α,25R)-7,15-Dihydroxy-3,11,23-Trioxolanost-8-en-26-oic Amide] | 199.7 to 200.3 | 64.2 ± 1.4 % of Control | 52.4 ± 2.1 % of Control | 87.5 ± 7.6 % of Control | 53.3 ± 6.9 % of Control | 40.3 ± 7.8 % of Control | 99.2 ± 2.6 % of Control | 89.6 ± 3.8 % of Control | 79.0 ± 2.9 % of Control | 80.1 ± 2.8 % of Control | some toxicity | potent anti-proliferation activity | – | significant anti-proliferation activities
C[C@H](CC(=O)C[C@@H](C)[C@H]1C[C@H](O)[C@@]2(C)C3=C(C(=O)C[C@]12C)[C@@]1(C)CCC(=O)C(C)(C)[C@@H]1C[C@@H]3O)C(=O)N1CCN(C)CC1 [Compound A13, (4-Methylpiperazin-1-yl)-(7β,15α,25R)-7,15-Dihydroxy-3,11,23-Trioxolanost-8-en-26-oic Amide] | 173.2 to 174.9 | 104.4 ± 2.0 % of Control | 99.3 ± 4.9 % of Control | 113.6 ± 2.1 % of Control | 107.3 ± 9.1 % of Control | 102.7 ± 3.5 % of Control | 87.6 ± 3.8 % of Control | 77.6 ± 3.5 % of Control | – | – | – | – | – | –
CCN1CCN(C(=O)[C@H](C)CC(=O)C[C@@H](C)[C@H]2C[C@H](O)[C@@]3(C)C4=C(C(=O)C[C@]23C)[C@@]2(C)CCC(=O)C(C)(C)[C@@H]2C[C@@H]4O)CC1 [Compound A14, (4-Ethylpiperazin-1-yl)-(7β,15α,25R)-7,15-Dihydroxy-3,11,23-Trioxolanost-8-en-26-oic Amide] | 198.5 to 199.4 | 95.6 ± 1.9 % of Control | 99.3 ± 0.2 % of Control | 106.2 ± 4.7 % of Control | 102.2 ± 5.9 % of Control | 96.2 ± 5.0 % of Control | 70.4 ± 1.6 % of Control | 47.3 ± 2.1 % of Control | – | – | – | – | – | –
